# Laboratory results reported in patent US20160374944A1, “COMPOSITIONS AND METHODS FOR TREATING AND PREVENTING CANCER BY TARGETING AND INHIBITING CANCER STEM CELLS” (priority 2011, published 2016).
# Assays:
# [1] = tested on: Prostate CSCs; assay: gene expression by qRT-PCR; assay type: cell-based, human; settings: 24 h
# Experimental: FIG. 15 is a graph showing that rottlerin inhibits the expression of survivin, XIAP, Bcl-2 and Bcl-XL in prostate CSCs. Prostate CSCs were treated with rottlerin (0-2 μM) for 24 h, and the expression of survivin, XIAP, Bcl-2 and Bcl-XL was measured by the q-RT-PCR. […] Data were normalized with GAPDH.
# FIG. 16 is a graph showing the regulation by rottlerin of cMyc, Nanog, Oct3/4 and Sox-2 in prostate CSCs. Prostate CSCs were treated with rottlerin (0-1 μM) for 24 h. The expression of cMyc, Nanog, Oct3/4 and Sox-2 was measured by qRT-PCR. […] Data were normalized with GAPDH.
# (§1) FIG. 17 graphs showing the regulation of Shh, Notch and TGFβ pathways by rottlerin. […] The expression of Patched-1, Patched-2, SMO, Gli1 and Gli2 was measured by qRT-PCR. […] Data were normalized with GAPDH. (D) Prostate CSCs were treated with rottlerin (0-1 μM) for 24 h. The expression of Notch1, Notch3 and JAG1 was measured by qRT-PCR. (E) TCF/LEF-1, Gli and Notch reporter activities. Prostate CSCs were transduced with a mixture of TCF/LEF1-, Gli-, or Notch-responsive firefly luciferase construct and Renilla luciferase construct (40:1) along with lipofectamine. After transduction, medium was changed and CSCs were treated with rottlerin (0-2 μM) for 24 h. […] (F) Immunofluorescence analysis of Gli1 and Gli2 expression in prostate CSCs. Green=Gli1 or Gli2; red=nucleus.
# [2] = tested on: Gli reporter activity in prostate CSCs; assay: Gli-responsive dual luciferase reporter; assay type: cell-based, human; settings: rottlerin 0-2 μM, 24 h, dual luciferase assay
# Experimental: as §1
# [3] = tested on: Gli1 and Gli2 in prostate CSCs; assay: immunofluorescence analysis of Gli1 and Gli2 expression; assay type: cell-based, human; settings: measured by IFC
# Experimental: as §1
# [4] = tested on: Pancreatic CSCs; settings: NOD/SCID/IL2R gamma mice, 20 mg/kg, 6 weeks
# Experimental: (A) Pancreatic CSCs were orthotopically implanted in pancreas of NSG mice, and treated with or without sulforaphane 20 mg/kg, for 6 weeks, (B and C) Pancreatic CSCs were xenografted sub-cutaneously in NSG mice, and treated with or without rottlerin and embelin 20 mg/kg, for 6 weeks, (D and E) Prostate CSCs were xenografted sub-cutaneously in NSG mice, and treated with or without rottlerin and embelin 20 mg/kg, for 6 weeks. At the end of the treatment, weights of tumors in treated mice were compared with control mice.
# [5] = tested on: pancreatic cancer; settings: KrasG12D mice
# [6] = tested on: pancreatic cancer stem cells
smiles,measurement,setting,value
CC(=O)c1c(O)c(C)c(O)c(Cc2c(O)c3c(c(C(=O)/C=C/c4ccccc4)c2O)OC(C)(C)C=C3)c1O [rottlerin],expression of Bcl-2,[1]; normalized with GAPDH,inhibited the expression
same,expression of Bcl-XL,[1]; normalized with GAPDH,inhibited the expression
same,expression of Gli1,[1]; normalized with GAPDH,inhibited the expression
same,expression of Gli2,[1]; normalized with GAPDH,inhibited the expression
same,expression of Nanog,[1]; normalized with GAPDH,inhibited the expression
same,expression of Oct3/4,[1]; normalized with GAPDH,inhibited the expression
same,expression of Patched-1,[1]; normalized with GAPDH,inhibited the expression
same,expression of Patched-2,[1]; normalized with GAPDH,inhibited the expression
same,expression of SMO,[1]; normalized with GAPDH,inhibited the expression
same,expression of Sox-2,[1]; normalized with GAPDH,inhibited the expression
same,expression of XIAP,[1]; normalized with GAPDH,inhibited the expression
same,expression of cMyc,[1]; normalized with GAPDH,inhibited the expression
same,expression of survivin,[1]; normalized with GAPDH,inhibited the expression
same,expression of JAG1,[1]; rottlerin 0-1 μM,inhibited the expression
same,expression of Notch1,[1]; rottlerin 0-1 μM,inhibited the expression
same,expression of Notch3,[1]; rottlerin 0-1 μM,inhibited the expression
same,Gli responsive reporter activity,[2],"inhibited the TCF/LEF1, Gli1 and Notch responsive reporter activities in a dose-dependent manner"
same,nuclear expression of constitutively active Gli1,[3],inhibited the nuclear expression
same,nuclear expression of constitutively active Gli2,[3],inhibited the nuclear expression
C[S+]([O-])CCCCN=C=S (stereo not shown) [sulforaphane],tumor growth (weights of tumors vs control mice),[4],inhibit tumor growth
same,pancreatic cancer progression,[5],inhibits the growth of pancreatic cancer progression
same,growth of pancreatic cancer stem cells,[6],inhibits the growth
